{"source": "patent US20030119910A1", "about": "“Therapeutic or preventing agent for diseases caused by decrease in the expression level of klotho protein” (Kyowa Hakko Kogyo Co., Ltd., priority 2001, published 2003)", "format_in_all_cases": "in vivo, mouse", "key": {"Klotho protein": {"test_system": "Klotho protein", "experiment": "Expression level of Klotho protein in the kidneys of male klotho mutant homozygotes raised on feed", "details": "male homozygous klotho mutant mice, ornithine in feed", "description": "The determination of Klotho protein can be carried out by methods such as immune precipitation, Western blotting and enzyme-linked immunosorbent assay (ELISA) using an anti-Klotho protein antibody, and the determination of mRNA for the klotho gene can be carried out by methods such as Northern blot hybridization and reverse transcription-polymerase chain reaction (RT-PCR). The determination methods and methods for obtaining tissue samples, klotho gene, Klotho protein, probe DNA, primers, antibodies, etc. to be used in the determination are described in WO 98/29544.\n(§1) Mice carrying a klotho mutation were bred by mating a pair of heterozygous klotho mutant mice provided by Tumor Biology, Pathology, Kyoto University Graduate School of Medicine. Klotho mutant homozygotes, klotho mutant heterozygotes and wild-type mice were confirmed by PCR. Male klotho mutant homozygotes were raised on the feed prepared in Example 1 or the feed prepared in Comparative Example 1 and were intermittently weighed (number of animals: 4/group). The mice were given the powdery feed through a commercially available powder feeder (KN-675 No. 4, Natsume Seisakusho) and filtered running water, both ad libitum. […] The expression level of Klotho protein was expressed as relative values based on the average value of the group raised on the feed of Comparative Example 1 up to the age of 6 weeks as 100."}, "[1]": {"test_system": "female homozygous klotho mutant mice", "experiment": "Breeding results of female homozygous klotho mutant mice raised on feed", "details": "ornithine in feed", "description": "Male homozygous klotho mutant mice were raised on the feed of Comparative Example 3 and female homozygous klotho mutant mice were raised on the feed of Example 7 or the feed of Comparative Example 2, both to the age of 8 weeks. These male and female mice were mated and their breeding results were compared between the female group fed on the feed of Example 7 and that fed on the feed of Comparative Example 2. During the mating period, the males were transferred into the cages of females and so fed on the same feeds as the respective females."}, "[2]": {"test_system": "female klotho mutant homozygotes", "experiment": "Life span of female klotho mutant homozygotes raised on feed", "details": "ornithine in feed", "description": "Female klotho mutant homozygotes obtained by the same method as in Example 3 were raised on the feed of Example 1, the feed of Comparative Example 1, the feed of Example 2 or the feed of Comparative Example 2 (number of animals: 4/group) to observe their life span. The number of mice that died before reaching the age of 11 weeks was 0 and 2 in the groups fed on the feed of Example 1 and the feed of Comparative Example 1, respectively, and was 1 and 2 in the groups fed on the feed of Example 2 and the feed of Comparative Example 2, respectively."}, "[3]": {"test_system": "female klotho mutant homozygotes", "experiment": "Body weight of female klotho mutant homozygotes raised on feed", "details": "female homozygous individuals, ornithine in feed", "description": "as §1\nFemale klotho mutant homozygotes obtained by the same method as in Example 3 were raised on the feed of Example 1 or the feed of Comparative Example 1 in the same manner as in Example 3 up to the age of 8 weeks, and their body weight was measured. […]\nFemale klotho mutant homozygotes obtained by the same method as in Example 3 were raised on the feed of Example 2 or the feed of Comparative Example 2 in the same manner as in Example 3 up to the age of 6 weeks, and their body weight was measured. […]"}, "[4]": {"test_system": "male homozygous klotho mutant mice", "experiment": "Male klotho mutant homozygotes raised on feed: indices of premature aging-like syndrome (blood sugar, serum inorganic phosphorus, body weight)", "details": "ornithine in feed", "description": "Mice carrying a klotho mutation were bred by mating a pair of heterozygous klotho mutant mice provided by Tumor Biology, Pathology, Kyoto University Graduate School of Medicine. Klotho mutant homozygotes, klotho mutant heterozygotes and wild-type mice were confirmed by PCR. Male klotho mutant homozygotes were raised on the feed prepared in Example 1 or the feed prepared in Comparative Example 1 and were intermittently weighed (number of animals: 4/group). The mice were given the powdery feed through a commercially available powder feeder (KN-675 No. 4, Natsume Seisakusho) and filtered running water, both ad libitum. The mice were raised in an SPF (specific pathogen-free) room kept at a temperature of 24±1° C. and a humidity of 55±10%. The expression level of Klotho protein was expressed as relative values based on the average value of the group raised on the feed of Comparative Example 1 up to the age of 6 weeks as 100."}}, "data": [{"smiles": "NCCC[C@H](N)C(=O)O", "note": "[ornithine]", "values": [{"measurement": "Effect on expression level of kidney Klotho protein", "setting": "Klotho protein", "result": "effective in raising the expression level of kidney Klotho protein"}, {"measurement": "Effect on breeding result", "setting": "[1]", "result": "improved the breeding result"}, {"measurement": "Effect on life span", "setting": "[2]", "result": "effective in prolonging life span"}, {"measurement": "Effect on body weight", "setting": "[3]", "result": "weight-increasing effect"}, {"measurement": "Effect on premature aging-like syndrome", "setting": "[4]", "result": "inhibitory effects on premature aging-like syndrome"}]}]}
